This note sets out measurements from PMC5029806, “Streptococcus pneumoniae TIGR4 Flavodoxin: Structural and Biophysical Characterization of a Novel Drug Target” (PLoS ONE, 2016).

The test deals with T1, Streptococcus pneumoniae TIGR4 flavodoxin (SpFld) (Streptococcus pneumoniae, UniProt A0A0H2UQC6).
T1 construct: gene fld; apo form for ITC, SeMet holo form for the crystal structure
The experiment in a line: ITC at […]°C ([…] NaCl, […] MES, pH […]); crystal structure of the FMN complex; thermal stabilization by CD, fluorescence and DSC. Format: binding.

One may read the Kd as the constant that tells how readily two partners part at equilibrium. A high value points to a looser complex.

T1 sequence (A0A0H2UQC6 entry or part of it): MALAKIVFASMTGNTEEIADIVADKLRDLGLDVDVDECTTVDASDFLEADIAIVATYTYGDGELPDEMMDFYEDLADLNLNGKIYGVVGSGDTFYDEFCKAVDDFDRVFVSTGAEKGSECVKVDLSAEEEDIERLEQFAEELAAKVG

`Cc1cc2nc3c(=O)[nH]c(=O)nc-3n(C[C@H](O)[C@H](O)[C@H](O)COP(=O)(O)O)c2cc1C` [FMN] registered a Kd of 83 ± 9 nM.
